Earlier results in US6899896B2, “Hydrogel-driven layered drug dosage form” (Pfizer Inc, priority 1999, dated 2005).
Read-outs that look alike come from different tables or passages of the source.

solubility of sertraline (pH 2.0): 6 mgA/mL
solubility of sertraline (pH 6.5): about 1 mgA/mL
solubility of sertraline (pH about 7.0): about 0.2 mgA/mL
solubility of sertraline (pH about 7.5): about 0.05 mgA/mL
Compound: CN[C@H]1CC[C@@H](c2ccc(Cl)c(Cl)c2)c2ccccc21 [Sertraline, (1S-cis)-4-(3,4-dichlorophenyl)-1,2,3,4-tetrahydro-N-methyl-1-naphthalenamine]
